According to US8691804B2 (Evotec AG, priority 2008, dated 2014):

What follows are molecules tested against T1, human H3 receptors (Homo sapiens, UniProt Q9Y5N1) (assay: cAMP quantification assay for human H3 receptor testing). Conditions: CHO-K1 cells expressing human H3 receptors; inhibition of agonist-induced decrease of cAMP; 100 nM histamine, 10 μM forskolin; read-out: Potency range (IC50 values).
T1 construct: host or cells: CHO-K1
T1 sequence (Q9Y5N1 whole entry): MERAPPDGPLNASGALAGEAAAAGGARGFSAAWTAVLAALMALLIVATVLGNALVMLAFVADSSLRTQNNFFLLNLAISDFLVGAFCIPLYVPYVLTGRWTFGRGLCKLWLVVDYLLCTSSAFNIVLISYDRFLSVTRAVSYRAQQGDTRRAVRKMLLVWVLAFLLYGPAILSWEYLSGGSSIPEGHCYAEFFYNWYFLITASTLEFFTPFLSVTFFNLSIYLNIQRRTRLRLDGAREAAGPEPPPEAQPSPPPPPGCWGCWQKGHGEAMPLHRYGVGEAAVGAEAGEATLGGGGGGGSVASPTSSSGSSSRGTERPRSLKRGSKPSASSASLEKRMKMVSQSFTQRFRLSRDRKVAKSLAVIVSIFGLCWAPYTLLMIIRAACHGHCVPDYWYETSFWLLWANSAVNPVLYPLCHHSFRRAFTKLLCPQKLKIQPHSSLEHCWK
Format: cell-based
Procedure: CHO—K1 cell line expressing human H3 receptors were purchased from Euroscreen (Gosselies, Belgium, Cat. no.: ES-392-C)
Human H3 receptor-expressing cell-lines were grown in Ham's F12 [Sigma, Cat. no. N6658], supplemented with 10% FBS [Sigma, Cat. no. F9665], 400 μg/ml G418 [Sigma, Cat. no. N1876] and 250 μg/ml Zeocin [Invitrogen, Cat. no. 46-0509]) according to the protocol provided by Euroscreen.
The assay measures the ability of test compounds to inhibit Histamine receptor agonist-induced decrease of intracellular free cAMP (receptor is Gi coupled).
Specifically, a cAMP quantification assay system from DiscoveRx (cAMP XS+; Cat. no. 90-0075) was used.
For the cAMP assay, confluent cells were detached from the culture vessels with 1× trypsin-EDTA solution (Sigma), and seeded into 384-well Costar plates (white, clear bottom, Cat. no. 3707) at a density of 10,000 cells per well. Cells were seeded in a volume of 50 μl in medium without antibiotics and incubated overnight in a humidified atmosphere with 5% CO2 at 37° C. The cAMP assay was performed according to the protocol provided by DiscoveRx.
The cell culture medium was removed and the cells washed once with PBS (50 μl per well). The plates were emptied by inversion and 7.5 μl/well of compound in PBS (containing 1 mM IBMX and 0.03% BSA) were added and incubated for 30 min at 37° C.
Subsequent 7.5 μl/well specific agonist solution was added and the plates for another 30 min incubated at 37° C.
hH3:100 nM histamine, 10 μM forskolin in PBS (containing 1 mM IBMX and 0.03% BSA)
After the incubation with the agonist, 5 μl/well cAMP XS antibody solution was added followed by 20 μl/well Gal/EII/Lysis (1:5:19)+ED (1:1). The plates were incubated for one hour at room temperature and afterwards 20 μl/well EA reagent was added. The luminescence was developed for approximately three hours at room temperature and the plates were read out using a ‘BMG Novostar’ plate reader.
Test compounds were assayed at 8 concentrations in triplicate. Serial 10-fold dilutions in 100% DMSO were made at a 100-times higher concentration than the final concentration and then diluted with a 2 step protocol in assay buffer to reach the required assay concentrations and 1% DMSO. […]
For `O=C(N1CCCN(C2CCC2)CC1)N1CC(Oc2ccccc2C(F)(F)F)C1` [Example 29, 1-cyclobutyl-4-({3-[2-(trifluoromethyl)phenoxy]azetidin-1-yl}carbonyl)-1,4-diazepane], the IC50 was under 100 nM.
For `CN1CCN(Cc2ccc(OC3CN(C(=O)N4CCCN(C5CCC5)CC4)C3)cc2)CC1` [Example 20, 1-cyclobutyl-4-[(3-{4-[(4-methylpiperazin-1-yl)methyl]phenoxy}azetidin-1-yl)carbonyl]-1,4-diazepane], the IC50 was under 100 nM.
`CN(C)C(=O)c1ccc(OC2CN(C(=O)N3CCCN(C4CCC4)CC3)C2)cn1` [Example 6, 5-({1-[(4-cyclobutyl-1,4-diazepan-1-yl)carbonyl]azetidin-3-yl}oxy)-N,N-dimethylpyridine-2-carboxamide] was tested, and the IC50 was under 100 nM.
Molecule `CNC(=O)C1CN(C(=O)N2CCCN(C3CCC3)CC2)C1` [Example 133, 1-[(4-cyclobutyl-1,4-diazepan-1-yl)carbonyl]-N-methylazetidine-3-carboxamide] has an IC50 of 100 to 500 nM.
Work on `COc1ccc(OC2CN(C(=O)N3CCCN(C4CCC4)CC3)C2)nc1` [Example 161, 1-cyclobutyl-4-({3-[(5-methoxypyridin-2-yl)oxy]azetidin-1-yl}carbonyl)-1,4-diazepane] yielded an IC50 of under 100 nM.
`NC(=O)c1ccc(OC2CN(C(=O)N3CCCN(C4CCC4)CC3)C2)cn1` [Example 4, 5-({1-[(4-cyclobutyl-1,4-diazepan-1-yl)carbonyl]azetidin-3-yl}oxy)pyridine-2-carboxamide] showed an IC50 of under 100 nM.
Work on `O=C(N1CCCN(C2CCC2)CC1)N1CC(COc2ccc(Cl)cc2)C1` [Example 135, 1-({3-[(4-chlorophenoxy)methyl]azetidin-1-yl}carbonyl)-4-cyclobutyl-1,4-diazepane] yielded an IC50 of under 100 nM.
With `N#Cc1ccc(CNC2CN(C(=O)N3CCCN(C4CCC4)CC3)C2)cc1` [Example 112, 4-[({1-[(4-cyclobutyl-1,4-diazepan-1-yl)carbonyl]azetidin-3-yl}amino)methyl]benzonitrile] the IC50 was under 100 nM.
In the case of `Cn1ccc2cc(OC3CN(C(=O)N4CCCN(C5CCC5)CC4)C3)ccc21` [Example 155, 5-({1-[(4-cyclobutyl-1,4-diazepan-1-yl)carbonyl]azetidin-3-yl}oxy)-1-methyl-1H-indole], the IC50 is reported as under 100 nM.
With `O=C(N1CCN(C2CCC2)CC1)N1CC(O)C1` [Example 2, 1-[(4-cyclobutylpiperazin-1-yl)carbonyl]azetidin-3-ol] the IC50 was 500 to 5000 nM.
In the case of `Cc1ccc(COC2CN(C(=O)N3CCCN(C4CCC4)CC3)C2)cn1` [Example 164, 1-cyclobutyl-4-({3-[(6-methylpyridin-3-yl)methoxy]azetidin-1-yl}carbonyl)-1,4-diazepane], the IC50 is reported as under 100 nM.
For `O=C(N1CCCN(C2CCC2)CC1)N1CC(Oc2ccccc2Cl)C1` [Example 33, 1-{[3-(2-chlorophenoxy)azetidin-1-yl]carbonyl}-4-cyclobutyl-1,4-diazepane], the IC50 was under 100 nM.
In the case of `CNC(=O)c1cc(OC2CN(C(=O)N3CCCN(C4CCC4)CC3)C2)ccn1` [Example 147, 4-({1-[(4-cyclobutyl-1,4-diazepan-1-yl)carbonyl]azetidin-3-yl}oxy)-N-methylpyridine-2-carboxamide], the IC50 is reported as under 100 nM.
With `Cc1nccc(OC2CN(C(=O)N3CCCN(C4CCC4)CC3)C2)n1` [Example 65, 1-cyclobutyl-4-({3-[(2-methylpyrimidin-4-yl)oxy]azetidin-1-yl}carbonyl)-1,4-diazepane] the IC50 was under 100 nM.
Molecule `CC(C)(O)c1ccc(O[C@H]2C[C@@H](C(=O)N3CCCN(C4CCC4)CC3)C2)cn1` [Example 165, 2-[5-({cis-3-[(4-cyclobutyl-1,4-diazepan-1-yl)carbonyl]cyclobutyl}oxy)pyridin-2-yl]propan-2-ol] has an IC50 of under 100 nM.
With `O=C(C1CN(C(=O)N2CCCN(C3CCC3)CC2)C1)N1CCOCC1` [Example 125, 1-cyclobutyl-4-{[3-(morpholin-4-ylcarbonyl)azetidin-1-yl]carbonyl}-1,4-diazepane] the IC50 was under 100 nM.
Molecule `O=C(N1CCCN(C2CCC2)CC1)N1CC(Oc2ccc(CN3CCCCC3)cc2)C1` [Example 19, 1-cyclobutyl-4-({3-[4-(piperidin-1-ylmethyl)phenoxy]azetidin-1-yl}carbonyl)-1,4-diazepane] has an IC50 of under 100 nM.
`O=C(CC1CC1)N1CCc2nc(OC3CN(C(=O)N4CCCN(C5CCC5)CC4)C3)ccc2C1` [Example 84, 2-({1-[(4-cyclobutyl-1,4-diazepan-1-yl)carbonyl]azetidin-3-yl}oxy)-6-(cyclopropylacetyl)-5,6,7,8-tetrahydro-1,6-naphthyridine] gave an IC50 of under 100 nM.
Molecule `CNC(=O)c1ccc(OC2CN(C(=O)N3CCCN(C(C)C)CC3)C2)cn1` [Example 114, 5-({1-[(4-(1-methylethyl)-1,4-diazepan-1-yl)carbonyl]azetidin-3-yl}oxy)-N-methylpyridine-2-carboxamide] has an IC50 of under 100 nM.
With `O=C(N1CCCN(C2CCC2)CC1)N1CC(Oc2ccc3[nH]ccc3c2)C1` [Example 154, 5-({1-[(4-cyclobutyl-1,4-diazepan-1-yl)carbonyl]azetidin-3-yl}oxy)-1H-indole] the IC50 was under 100 nM.
With `CNC(=O)c1ccc(OC2CN(C(=O)N3CCCN(C4CCC4)CC3)C2)cc1` [Example 8, 4-({1-[(4-cyclobutyl-1,4-diazepan-1-yl)carbonyl]azetidin-3-yl}oxy)-N-methylbenzamide] the IC50 was under 100 nM.
`O=C(NC1CN(C(=O)N2CCCN(C3CCC3)CC2)C1)C1CCCCC1` [Example 141, N-{1-[(4-cyclobutyl-1,4-diazepan-1-yl)carbonyl]azetidin-3-yl}cyclohexanecarboxamide] was tested, and the IC50 was under 100 nM.
Work on `O=C(N1CCCN(C2CCC2)CC1)N1CC(Oc2ccc(C(F)(F)F)cn2)C1` [Example 11, 1-cyclobutyl-4-[(3-{[5-(trifluoromethyl)pyridin-2-yl]oxy}azetidin-1-yl)carbonyl]-1,4-diazepane] yielded an IC50 of under 100 nM.
Molecule `N#Cc1ccc(OC2CN(C(=O)N3CCCN(C4CCC4)CC3)C2)cc1` [Example 12, 4-({1-[(4-cyclobutyl-1,4-diazepan-1-yl)carbonyl]azetidin-3-yl}oxy)benzonitrile] has an IC50 of under 100 nM.
In the case of `CN(C)c1cc(OC2CN(C(=O)N3CCCN(C4CCC4)CC3)C2)ccn1` [Example 58, 4-({1-[(4-cyclobutyl-1,4-diazepan-1-yl)carbonyl]azetidin-3-yl}oxy)-N,N-dimethylpyridin-2-amine], the IC50 is reported as under 100 nM.
With `O=C(N1CCCN(C2CCC2)CC1)N1CC(Oc2ccc(C(F)(F)F)cc2)C1` [Example 10, 1-cyclobutyl-4-({3-[4-(trifluoromethyl)phenoxy]azetidin-1-yl}carbonyl)-1,4-diazepane] the IC50 was under 100 nM.
`Cc1cnc(OC2CN(C(=O)N3CCCN(C4CCC4)CC3)C2)c(C)n1` [Example 61, 1-cyclobutyl-4-({3-[(3,5-dimethylpyrazin-2-yl)oxy]azetidin-1-yl}carbonyl)-1,4-diazepane] was tested, and the IC50 was under 100 nM.
`Cc1cc(OC2CN(C(=O)N3CCCN(C4CCC4)CC3)C2)ccn1` [Example 27, 1-cyclobutyl-4-({3-[(2-methylpyridin-4-yl)oxy]azetidin-1-yl}carbonyl)-1,4-diazepane] gave an IC50 of under 100 nM.
Work on `O=C(N1CCCN(C2CCC2)CC1)N1CC(Oc2ccccc2)C1` [Example 15, 1-cyclobutyl-4-[(3-phenoxyazetidin-1-yl)carbonyl]-1,4-diazepane] yielded an IC50 of under 100 nM.
`Cc1cc(OC2CN(C(=O)N3CCCN(C4CCC4)CC3)C2)cc(C)n1` [Example 69, 1-cyclobutyl-4-({3-[(2,6-dimethylpyridin-4-yl)oxy]azetidin-1-yl}carbonyl)-1,4-diazepane] was tested, and the IC50 was under 100 nM.
Molecule `O=C(N1CCCN(C2CCC2)CC1)N1CC(COc2ccc(C(F)(F)F)nc2)C1` [Example 153, 1-cyclobutyl-4-{[3-({[6-(trifluoromethyl)pyridin-3-yl]oxy}methyl)azetidin-1-yl]carbonyl}-1,4-diazepane] has an IC50 of under 100 nM.
`CCN(CC)C(=O)c1ccc(OC2CN(C(=O)N3CCCN(C4CCC4)CC3)C2)cn1` [Example 7, 5-({1-[(4-cyclobutyl-1,4-diazepan-1-yl)carbonyl]azetidin-3-yl}oxy)-N,N-diethylpyridine-2-carboxamide] gave an IC50 of under 100 nM.
`CS(=O)(=O)c1ccc(OC2CN(C(=O)N3CCCN(C4CCC4)CC3)C2)cc1` [Example 163, 1-cyclobutyl-4-({3-[4-(methylsulfonyl)phenoxy]azetidin-1-yl}carbonyl)-1,4-diazepane] gave an IC50 of under 100 nM.
For `O=C(C1CN(C(=O)N2CCCN(C3CCC3)CC2)C1)N1CCCC1` [Example 127, 1-cyclobutyl-4-{[3-(pyrrolidin-1-ylcarbonyl)azetidin-1-yl]carbonyl}-1,4-diazepane], the IC50 was under 100 nM.
For `O=C1CN(C(=O)N2CCCN(C3CCC3)CC2)C1` [Example 108, 1-[(4-cyclobutyl-1,4-diazepan-1-yl)carbonyl]azetidin-3-one], the IC50 was under 100 nM.
